In a melting point compilation (Tetko et al.; mined from patent text by program, amines drawn as free bases though some values may be those of a salt):

Compound `CC1=NN=C(C=Cc2ccc(C#N)cc2)c2cc3c(cc2C1)OCO3` has a melting point of 198 to 202 °C.
`COc1ccc(Nc2nc(Cl)nc(NCC3CCCCC3)n2)cc1F` gave a melting point of 156 °C.
Compound `COC(=O)c1cc2c(cnn2C)nc1C(=O)OC` has a melting point of 148 to 149 °C.
In the case of `COc1cc(SC)ccc1C(=O)c1cnoc1C1CC1`, the melting point is reported as 108 °C.
`CCOC(=O)c1nc(NCC(c2ccccc2)c2ccccc2)c2ncn(C3CCCCO3)c2n1` (stereo not given) showed a melting point of 138 to 140 °C.
Work on `CC(COc1ccc(O)c(C(N)=O)c1)NCc1ccccc1` (stereo not given) yielded a melting point of 102 to 104 °C.
`CC(=O)NCCn1ccc2c1-c1c(Cl)cccc1CC2` gave a melting point of 146 to 147 °C.
In the case of `Cc1cc(C(O)CN2CCC(O)(c3ccc4c(c3)COCC4)CC2)ccc1O` (stereo not given), the melting point is reported as 178 °C.
Work on `C[C@]1(COc2ccc(N3CCN(C(=O)NCc4ccc(OC(F)(F)F)cc4)CC3)cc2)Cn2cc([N+](=O)[O-])nc2O1` yielded a melting point of 166 to 168 °C.
With `CNC(Cc1cc(Br)cc(Br)c1N)c1sccc1C` (stereo not given) the melting point was 141 to 143 °C.
`N#Cc1[nH]c(Br)c(Br)c1-c1ccc(Cl)cc1` gave a melting point greater than 250 °C.
Compound `O=C(c1ccccc1)N1Cc2ccccc2Oc2ccc(Cl)cc21` has a melting point of 103 to 106 °C.
Work on `CC(C)(C)c1ccc(C(=O)Nc2cn3nc(NCCO)ccc3n2)cc1` yielded a melting point of 231 to 233 °C.
Compound `COc1cc(/C=C/[N+](=O)[O-])cc(OC)c1` has a melting point of 132 °C.
`O=C(O)CCCCCCCCCCCCCCCCCCCCC(=O)ON1C(=O)CCC1=O` showed a melting point of 122 to 124 °C.
With `CCOC(=O)C1=C(C)NC(CCN(C)C)=C(C(=O)OCC)C1c1ccccc1/C=C(\C)C(=O)OCC` (stereo not given) the melting point was 109 °C.
Compound `Cc1cc(C(=O)O)n(-c2ccc(C=Cc3ccccc3)c(C#N)c2)n1` has a melting point of 226 °C.
`COc1ccc2c(CNCCCCCC(=O)O)cc3cc(OC)c(OC)cc3c2c1` showed a melting point of 133 to 134 °C.
`CCNC(=O)c1c([Si](C)(C)C)sc2c1CCCC2` gave a melting point of 107 to 112 °C.
With `CCOC(=O)c1cc2cc(F)c(F)cc2nc1Cl` the melting point was 108 °C.
`CCCc1nc2c(N)nc3cc(OCCc4ccc(F)cc4)ccc3c2s1` showed a melting point of 145 to 148 °C.
`CC(C)(C)OC(=O)N1CCN(c2ccc(Oc3cc(Cl)ccc3[N+](=O)[O-])cc2)CC1` gave a melting point of 124 to 125 °C.
Work on `CCOC(=O)c1ncn(C2OC(COC(=O)c3ccccc3)C(OC(=O)c3ccccc3)C2OC(=O)c2ccccc2)c1C(=O)OCC` (stereo not given) yielded a melting point of 134 to 136 °C.
Work on `CCOC(=O)C(Oc1ccc(Cl)cc1)c1ccc(Oc2ccc(Cl)cc2)cc1` (stereo not given) yielded a melting point of 52.5 to 54 °C.
With `CCOC(=O)c1c(N=[N+]=[N-])[nH]c(=O)c(I)c1Oc1cc(C)cc(C)c1` the melting point was 216 to 218 °C.
Work on `CC(C#N)(c1ccc(Cl)c(C(F)(F)F)c1)c1ccc(N)cc1Cl` (stereo not given) yielded a melting point of 180 °C.
For `Cc1c(C)c2c(c(C)c1NC(=O)C(O)C(C)(C)C)C(c1ccc(C(C)C)cc1)CO2` (stereo not given), the melting point was 165 to 166 °C.
For `COc1cccc2c3c(cnc12)CCCN3c1ccccc1C`, the melting point was 160 to 161 °C.
In the case of `CCCC[C@H](NS(=O)(=O)c1ccc(Br)cc1)C(=S)Nc1ccc(CC(=O)O)cc1`, the melting point is reported as 194 to 195 °C.
Compound `CC(N)=CC(=O)CS(=O)(=O)N(C)C` has a melting point of 137 to 140 °C.
`O=C(Nc1ccc(O)cn1)C(CC1CCCC1)c1ccc(Cl)c(Cl)c1` (stereo not given) showed a melting point of 79 to 81 °C.
With `COc1cc2c(Nc3ccc(Oc4ccccc4)cc3)c(C#N)cnc2cc1OCCN1CCC(N2CCCCC2)CC1` the melting point was 141 °C.
`CCOC(=O)NC(=O)C(F)F` showed a melting point of 55 to 57 °C.
Compound `CN1CCN(c2ccc(N/C=C3\C(=O)NC(=O)c4ccc(C(=O)O)cc43)cc2)CC1` has a melting point of 278 to 280 °C.
With `CC(C=CC=C(C)CCCC(C)CCCC(C)C)=CC(=O)O` (stereo not given) the melting point was 84.5 to 85.5 °C.
`C[Si](C)(C)OCCNc1ccc(NCCO[Si](C)(C)C)c2c1C(=O)c1ccccc1C2=O` gave a melting point of 123 to 126 °C.
Work on `CCOC(=O)c1c(NCCCC(=O)c2ccccc2)c2c(Cl)cc(Cl)cc2n1C(=O)OC(C)(C)C` yielded a melting point of 110 to 111 °C.
In the case of `Cc1cc(-c2cccc(C(F)(F)F)c2)c2ncc(OC(F)F)nc2c1`, the melting point is reported as 105 to 106 °C.
`COc1ccc(-c2nc(C(OC)(C(F)(F)F)C(F)(F)F)[nH]c2-c2ccc(OC)cc2)cc1` gave a melting point of 129 to 131 °C.
Work on `O=C[C@H](Cc1c[nH]c2ccccc12)NC(=O)[C@H](Cc1ccccc1)NC(=O)OCc1ccccc1` yielded a melting point of 74 to 77 °C.
In the case of `CCOC(=O)N1C=CC(c2c(-c3ccccc3)nn3ccccc23)C(Cl)=N1` (stereo not given), the melting point is reported as 130 to 132 °C.
Compound `CCC1CC2=C(CCC(=O)C2)C2CCC3(C)C(=CCC3O)C12` (stereo not given) has a melting point of 102 to 105 °C.
Compound `COCC1CN(c2ccc(C3CCN(C(=O)c4ccc(C(F)(F)F)cc4)CC3)cc2)C(=O)O1` (racemic) has a melting point of 164 to 166 °C.
`Clc1cccc(-c2cnn(-c3ccccn3)c2)c1` showed a melting point of 110 to 111 °C.
`CCOC(=O)c1c(C(F)(F)F)nc(C(F)F)c(C(=O)O)c1N` gave a melting point of 142 to 151 °C.
Compound `O=C(O)CC1(O)CCC(N2CCN(CCCNc3ccncc3)CC2)CC1` (stereo not given) has a melting point of 242 °C.
For `COc1ccccc1COc1nc2c(oc3ccccc32)c(-c2ccc3c(c2)OCCO3)c1C(=O)O`, the melting point was 179 °C.
`CCS(=O)(=O)N(C)[C@@H]1c2cc(C#N)ccc2OCC[C@H]1O` (relative stereo) showed a melting point of 142 to 144 °C.
For `O=S1NC=Cc2ccccc21` (stereo not given), the melting point was 198 to 200 °C.
`COc1cccc(-c2nc(NO)nc(Nc3cccc([N+](=O)[O-])c3)n2)c1` gave a melting point of 197 to 198 °C.
